From the supplement of paper PMC10307832

Key:
Assay in all cases: relative viability (nuclei count vs DMSO), 5 days (fraction); higher = more cells survive
[1] = compound: C[C@@H](Oc1cc(-c2cnn(C3CCNCC3)c2)cnc1N)c1c(Cl)ccc(F)c1Cl [Crizotinib] + CC(=O)Nc1cccc(-n2c(=O)n(C3CC3)c(=O)c3c(Nc4ccc(I)cc4F)n(C)c(=O)c(C)c32)c1 [Trametinib] (partner 0.02 µM)
Procedure, shortened: (§1)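 After 5 days of treatment, lung cancer cells in 1536-well plates were fixed and stained in a single step (final 0.05% Triton X-100, 1% formaldehyde, 1 ug/ml Hoechst) and their nuclei counted on 4× images. Treatment had been applied by pin tool the day after seeding as one drug alone or as a fixed anchor-drug dose with five library-drug doses (not always all listed) in √10 steps. Relative viability is the nuclei count of treated wells divided by that of vehicle wells, and values are medians of duplicate plates.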

[2] = compound: C[C@@H](Oc1cc(-c2cnn(C3CCNCC3)c2)cnc1N)c1c(Cl)ccc(F)c1Cl [Crizotinib] + Cc1nc(NC(=O)N2CCC[C@H]2C(N)=O)sc1-c1ccnc(C(C)(C)C(F)(F)F)c1 [Alpelisib] (partner 2 µM)
Procedure, shortened: as §1

[3] = compound: O=C(c1cc(Cc2n[nH]c(=O)c3ccccc23)ccc1F)N1CCN(C(=O)C2CC2)CC1 [Olaparib] + CC(=O)Nc1cccc(-n2c(=O)n(C3CC3)c(=O)c3c(Nc4ccc(I)cc4F)n(C)c(=O)c(C)c32)c1 [Trametinib] (partner 0.02 µM)
Procedure, shortened: as §1

[4] = compound: O=C(c1cc(Cc2n[nH]c(=O)c3ccccc23)ccc1F)N1CCN(C(=O)C2CC2)CC1 [Olaparib] + CC(=O)c1c(C)c2cnc(Nc3ccc(N4CCNCC4)cn3)nc2n(C2CCCC2)c1=O [Palbociclib] (partner 0.5 µM)
Procedure, shortened: as §1

Cell Line	relative viability ([1]; first compound 0.01 µM)	relative viability ([1]; first compound 0.03162 µM)	relative viability ([1]; first compound 0.1 µM)	relative viability ([1]; first compound 0.3162 µM)	relative viability ([1]; first compound 1 µM)	relative viability ([2]; first compound 0.01 µM)	relative viability ([2]; first compound 0.03162 µM)	relative viability ([2]; first compound 0.1 µM)	relative viability ([2]; first compound 0.3162 µM)	relative viability ([2]; first compound 1 µM)	relative viability ([3]; first compound 0.08 µM)	relative viability ([3]; first compound 0.253 µM)	relative viability ([3]; first compound 2.53 µM)	relative viability ([3]; first compound 8 µM)	relative viability ([4]; first compound 0.08 µM)	relative viability ([4]; first compound 0.253 µM)	relative viability ([4]; first compound 2.53 µM)	relative viability ([4]; first compound 8 µM)
NCI-H1755	0.776	0.744	0.85	0.756	0.742	0.899	0.844	0.938	0.902	0.959	0.728	0.738	0.784	0.725	0.415	0.436	0.445	0.436
NCI-H1792	0.492	0.526	0.365		0.453	0.627	0.789	0.658	0.663	0.726	0.461	0.448	0.382	0.398	0.694	0.576	0.63	0.617
NCI-H1915	0.286	0.31	0.32	0.293	0.313	1.08	1.08	1.14		1.09	0.278	0.285	0.261	0.206	0.529	0.469	0.405	0.294
NCI-H1944	0.408	0.426	0.428	0.372	0.417	0.787		0.804	0.808	0.861	0.435	0.376	0.372	0.328	0.34	0.335	0.316	0.271
NCI-H1975	0.338	0.326	0.363	0.373	0.402	0.682	0.683	0.673	0.689	0.68	0.329	0.349	0.395	0.307	0.593	0.607	0.569	0.502
NCI-H1993	0.631	0.454	0.506	1.07	0.46	0.669	0.625	0.652	0.715	0.737	0.559	0.57	0.517	0.384	0.49	0.653	0.83	0.735
NCI-H2009	0.268	0.277	0.26	0.217	0.301	1.16	1.16		1.12	1.09	0.275	0.283	0.315	0.267	0.233	0.205	0.194	0.17
NCI-H2023	0.487	0.489	0.484	0.343	0.468	0.523	0.611	0.637	0.503	0.499	0.59	0.514	0.525	0.489	0.413	0.34	0.397	0.292
NCI-H2085	0.515	0.485	0.691	0.479	0.529	0.954	1.02		1.05	0.954	0.619	0.528	0.504	0.523	0.559	0.453	0.477	0.459
NCI-H2087	0.145	0.206	0.214	0.23	0.172	1.02				1.21	0.219	0.208	0.215	0.188	0.282	0.211	0.259	0.217
NCI-H2126	0.511	0.539	0.557	0.55	0.591	0.719	0.782	0.714	0.708	0.79	0.527	0.55	0.584	0.596	0.374	0.364	0.343	0.35
NCI-H2170	0.859	0.993	0.869	0.928	0.909	0.804	0.779	0.74	0.709	0.904	0.937	0.925	0.883	0.8	0.427	0.395	0.411	0.315
NCI-H2228	0.415	0.492	0.648	0.3	0.521	0.666	0.799	0.769	0.451	0.288	0.609	0.344	0.495	0.521	0.792	0.667	0.731	0.452
NCI-H2347	0.265	0.274	0.292	0.321	0.272	1.04	1.03	1.03	0.978	0.996	0.282	0.274	0.274	0.248	0.381	0.431	0.393	0.409
NCI-H2405	0.537	0.636	0.657	0.619	0.711	0.74	0.762	0.69	0.818	0.857	0.767	0.597	0.677	0.641	0.577	0.497	0.491	0.496
NCI-H3122	0.207	0.219	0.197	0.21	0.238	0.729	0.667	0.857	0.867	0.796	0.219	0.238	0.241	0.203	0.206	0.193	0.194	0.188
PC-3 [JPC-3]	0.634	0.721	0.759		0.651	0.959	1.04	1.05	0.998	1.07	0.777		0.712	0.744	0.531		0.52	0.534
PC-14	0.842	0.742	0.78	0.699	0.756	0.914	0.921	0.931	0.845	0.911	0.937	0.646	0.434	0.456	0.614	0.401	0.366	0.212
